Source: US20110230433A1, “COMPOSITIONS AND METHODS FOR TREATMENT OF CANCER” (UNIVERSITY OF WASHINGTON, priority 2010, published 2011)

Tests used:
DNA = conditions: cited from earlier work
E. coli = E. coli lacking repair of 8-OH-dG; cited from earlier work
HIV = HIV in tissue culture; cited from earlier work
dG = conditions: cited from earlier work
DNA polymerases = conditions: copying past site specific residues by DNA polymerases in vitro; cited from earlier work
SW480 = test: Viability after 48 hr culture with analog, crystal violet staining; assay type: cell-based, human; conditions: SW480 (mismatch repair proficient)
Method: (§1) The concentration of each analog used in the serial transfer experiments can be 50% less than the highest dose at which there is no reduction in viability. Analogs that fail to be toxic can be used at 100 μM.
(§2) In Table 2, mismatch repair proficient and deficient cell lines were assayed for viability after growing for 48 hr with the indicated analogs in nM to mM concentrations.

HCT116 = test: as above; assay type: cell-based, human; conditions: HCT116 (mismatch repair deficient)
Method: as §1, §2

[1] = system: human cells deficient in O^6-methyl transferase; conditions: compared to correct base-pairing with cytidine; cited from earlier work

Structure (SMILES) | Highest dose without decreased viability (SW480) | Highest dose without decreased viability (HCT116) | also measured
O=c1[nH]c2nccn2c2c1ncn2C1C[C@H](O)[C@@H](CO)O1 (some centres unmarked) [Etheno-dG, N^2,3-etheno dG] | – | – | frequency of non-complementary base-pairs (DNA): approximately 10%
O=c1n([C@H]2C[C@H](O)[C@@H](CO)O2)ccc2nccn12 [Etheno-dC, N^3,4-etheno dC] | – | – | frequency of non-complementary base-pairs (DNA): approximately 10%
Nc1nc2c(nc(O)n2[C@H]2C[C@H](O)[C@@H](CO)O2)c(=O)[nH]1 [8-OH-dG, 8-hydroxy deoxyguanosine] | – | – | increase in mutagenesis (E. coli): 1000 fold
COc1nc(=O)n([C@H]2C[C@H](O)[C@@H](CO)O2)cc1C [O^4-methyl-2′-deoxythymidine] | >3.3 mM | >3.3 mM | induction of lethal mutagenesis (HIV): induce lethal mutagenesis of HIV; frequency of mispairing with dG (dG): approximately 25%; increase in mis-incorporation (DNA polymerases): 20%
OC[C@H]1O[C@@H](n2cnc3c2ncn2ccnc32)C[C@@H]1O [Etheno-dA, 1,N6-etheno dA] | – | – | frequency of non-complementary base-pairs (DNA): approximately 10%
CCOc1nc(=O)n([C@H]2C[C@H](O)[C@@H](CO)O2)cc1C [O^4-ethyl-2′-deoxythymidine] | >3.3 mM | 0.33 mM | frequency of mispairing with dG (dG): approximately 25%
Nc1ncc2ncn([C@H]3C[C@H](O)[C@@H](CO)O3)c2n1 [2′-deoxyaminopurine, 2-Amino-9-(β-D-2′-deoxyribfuranosyl)purine] | >3.3 mM | >3.3 mM | –
NC1=NC(=O)N([C@H]2C[C@H](O)[C@@H](CO)O2)CN1 [KP-1212, reference compound] | 3.3 mM | 3.3 mM | –
OC[C@H]1O[C@@H](n2cnc3c(O)ncnc32)C[C@@H]1O [2′-deoxyinosine] | >3.3 mM | >3.3 mM | –
CCOc1nc(N)nc2c1ncn2[C@H]1C[C@H](O)[C@@H](CO)O1 [O^6-ethyl dG] | – | – | frequency of base-pairing with thymidine [1]: 11%
Nc1ncc2[nH]cnc2n1 [2′-aminopurine, 2-Aminopurine] | 0.00033 mM | 0.00033 mM | –
COc1nc(N)nc2c1ncn2[C@H]1C[C@H](O)[C@@H](CO)O1 [O^6-methyl dG] | – | – | frequency of base-pairing with thymidine [1]: 19%
CCN(N=O)C(N)=O [ENU, ethylnitrosourea, reference compound] | 0.6 mg/mL | 1.1 mg/mL | –
Nc1nc(=O)n([C@H]2C[C@H](O)[C@@H](CO)O2)cc1O [5-hydroxy-2′-deoxycytidine] | 0.3 mM | 0.03 mM | –
